Test results reported in patent US8829011B2 (Janssen Pharmaceutica NV, priority 2008, dated 2014).

Tests used:
[1] = target: T1, human recombinant 5-HT6 receptor (Homo sapiens, UniProt P50406); assay: Affinity for 5-HT6 receptor binding sites (competitive radioligand binding, [3H]LSD); details: membranes of HEK-293 with h5-HT6, * = tested as hydrochloride salt
T1 construct: expressed in transfected cells; host or cells: HEK-293
Method: (§1) Stock drug solutions (10 mM) were prepared in DMSO (the final assay concentration of DMSO not exceeding 0.4%). Drug dilutions were prepared in assay buffer.
(§2) Sigmoidal inhibition curves were generated and fitted by nonlinear regression analysis (GraphPad Prism).
3. Affinity for 5-HT6 Receptor Binding Sites
Receptor binding was performed using the human recombinant 5-HT6 (GB: BC0794995) receptor. The affinity of the compounds for the human 5-HT6 receptor was evaluated by competitive radioligand binding assays using [^3H]LSD. The assays were performed on membranes prepared from HEK-293 stably transfected with h5-HT6. Non-specific binding was estimated in the presence of 1 μM clozapine.

[2] = target: T2, human recombinant 5-HT2A receptor (Homo sapiens, UniProt P28223); assay: Affinity for 5-HT2A receptor binding sites (competitive radioligand binding, [3H]ketanserin); details: membranes of NIH3T3 with h5-HT2A, * = tested as hydrochloride salt
T2 construct: expressed in transfected cells; host or cells: NIH3T3
Method: as §1, §2
(§3) 2. Affinity for 5HT2 Receptor Binding Sites
(§4) Receptor binding was performed using the human recombinant 5-HT2A (GB: X57830), 5-HT2B (GB: Z36748) and 5-HT2C (GB: M81778) receptors. The affinity of the compounds for the 3 different human 5-HT2 receptor subtypes was evaluated by competitive radioligand binding assays using [^3H]ketanserin (h5-HT2A) or [^3H]mesulergine (h5-HT2B and h5-HT2C). The assays were performed on membranes prepared from NIH3T3 stably transfected with h5-HT2A or CHO stably transfected with h5-HT2B and h5-HT2C.

[3] = target: T3, human recombinant 5-HT2B receptor (Homo sapiens, UniProt P41595); assay: Affinity for 5-HT2B receptor binding sites (competitive radioligand binding, [3H]mesulergine); details: membranes of CHO with h5-HT2B, * = tested as hydrochloride salt
T3 construct: expressed in transfected cells; host or cells: CHO
Method: as §1, §2, §3, §4

[4] = target: T4, human recombinant 5-HT2C receptor (Homo sapiens, UniProt P28335); assay: Affinity for 5-HT2C receptor binding sites (competitive radioligand binding, [3H]mesulergine); details: membranes of CHO with h5-HT2C, * = tested as hydrochloride salt
T4 construct: expressed in transfected cells; host or cells: CHO
T4 sequence (P28335 33-458): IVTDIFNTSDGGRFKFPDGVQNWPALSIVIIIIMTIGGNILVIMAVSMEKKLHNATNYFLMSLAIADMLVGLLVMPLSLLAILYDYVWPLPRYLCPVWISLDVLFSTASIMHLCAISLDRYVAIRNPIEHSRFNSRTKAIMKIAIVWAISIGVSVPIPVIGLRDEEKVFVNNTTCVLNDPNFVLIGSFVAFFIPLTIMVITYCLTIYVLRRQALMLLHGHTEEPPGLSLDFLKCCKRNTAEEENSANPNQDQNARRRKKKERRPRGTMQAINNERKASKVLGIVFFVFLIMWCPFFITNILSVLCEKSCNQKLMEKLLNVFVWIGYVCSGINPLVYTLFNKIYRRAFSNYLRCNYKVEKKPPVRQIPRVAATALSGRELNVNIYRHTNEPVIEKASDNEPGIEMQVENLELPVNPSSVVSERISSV
Method: as §1, §2, §3, §4

T3 sequence (P41595 whole entry): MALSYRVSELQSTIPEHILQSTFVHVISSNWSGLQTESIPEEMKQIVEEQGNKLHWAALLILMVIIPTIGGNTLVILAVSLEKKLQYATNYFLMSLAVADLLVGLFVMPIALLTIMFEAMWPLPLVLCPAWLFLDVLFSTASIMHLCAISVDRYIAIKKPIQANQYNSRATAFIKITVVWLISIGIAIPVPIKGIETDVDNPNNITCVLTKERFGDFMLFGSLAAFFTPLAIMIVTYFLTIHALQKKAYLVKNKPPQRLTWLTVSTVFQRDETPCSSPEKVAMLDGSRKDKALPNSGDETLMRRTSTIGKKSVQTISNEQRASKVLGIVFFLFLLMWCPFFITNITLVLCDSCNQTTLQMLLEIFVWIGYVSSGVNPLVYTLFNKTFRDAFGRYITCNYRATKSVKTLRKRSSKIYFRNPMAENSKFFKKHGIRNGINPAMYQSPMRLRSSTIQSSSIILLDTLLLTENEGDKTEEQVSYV
T1 sequence (P50406 whole entry): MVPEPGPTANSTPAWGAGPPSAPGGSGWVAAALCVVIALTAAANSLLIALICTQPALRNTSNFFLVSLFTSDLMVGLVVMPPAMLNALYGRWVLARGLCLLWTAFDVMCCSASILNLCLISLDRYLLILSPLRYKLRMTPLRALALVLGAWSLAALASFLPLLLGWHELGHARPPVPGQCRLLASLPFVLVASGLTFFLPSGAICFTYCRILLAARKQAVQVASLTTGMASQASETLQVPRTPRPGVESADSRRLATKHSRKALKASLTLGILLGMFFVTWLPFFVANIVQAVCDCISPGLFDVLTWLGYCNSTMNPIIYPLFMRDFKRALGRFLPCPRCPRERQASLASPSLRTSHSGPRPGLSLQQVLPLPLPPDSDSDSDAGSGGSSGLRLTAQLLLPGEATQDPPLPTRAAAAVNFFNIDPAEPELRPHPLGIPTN
T2 sequence (P28223 whole entry): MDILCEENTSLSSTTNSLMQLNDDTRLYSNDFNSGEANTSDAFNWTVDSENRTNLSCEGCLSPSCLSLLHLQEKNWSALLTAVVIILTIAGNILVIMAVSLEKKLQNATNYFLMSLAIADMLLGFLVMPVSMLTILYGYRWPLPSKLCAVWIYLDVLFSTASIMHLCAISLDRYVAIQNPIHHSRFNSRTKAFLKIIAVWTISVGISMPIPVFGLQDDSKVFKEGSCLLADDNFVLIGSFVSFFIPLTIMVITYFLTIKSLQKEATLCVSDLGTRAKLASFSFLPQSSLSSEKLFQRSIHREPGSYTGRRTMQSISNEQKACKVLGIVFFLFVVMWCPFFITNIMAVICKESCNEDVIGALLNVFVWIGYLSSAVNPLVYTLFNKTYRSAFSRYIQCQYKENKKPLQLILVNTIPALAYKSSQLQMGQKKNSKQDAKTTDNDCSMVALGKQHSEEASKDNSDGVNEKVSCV

## COc1ccc(-c2nc(N3CCC(F)CC3)nc3c2CCNCC3)cc1 [Example 81, 2-(4-fluoro-1-piperidinyl)-6,7,8,9-tetrahydro-4-(4-methoxyphenyl)-5H-pyrimido[4,5-d]azepine]
[1]
  Ki: 83 nM

## Cc1ccc(-c2nc(N3CCOC[C@@H]3C)nc3c2CCNCC3)cc1 [Example 94, 6,7,8,9-tetrahydro-2-[(3S)-3-methyl-4-morpholinyl]-4-(4-methylphenyl)-5H-pyrimido[4,5-d]azepine]
[2]
  Ki: 25 nM
[3]
  Ki: 15 nM
[4]
  Ki: 15 nM
[1]
  Ki: 8 nM

## Cc1ccc(-c2nc(N3[C@H](C)CCC[C@@H]3C)nc3c2CCNCC3)cn1 [Example 86, 2-[(2R,6S)-2,6-dimethyl-1-piperidinyl]-6,7,8,9-tetrahydro-4-(6-methyl-3-pyridinyl)-5H-pyrimido[4,5-d]azepine]
[2]
  Ki: 660 nM
[3]
  Ki: 9 nM
[4]
  Ki: 240 nM
[1]
  Ki: 80 nM

## Cc1ccc(-c2nc(N3[C@H](C)CCC[C@@H]3C)nc3c2CCNCC3)cc1Cl [Example 79, 4-(3-chloro-4-methylphenyl)-2-[(2R,6S)-2,6-dimethyl-1-piperidinyl]-6,7,8,9-tetrahydro-5H-pyrimido[4,5-d]azepine]
[2]
  Ki: 39 nM
[3]
  Ki: 7 nM
[4]
  Ki: 26 nM
[1]
  Ki: 18 nM

## FC1CCN(c2nc3c(c(-c4ccc(Cl)cc4)n2)CCNCC3)CC1 [Example 68, 4-(4-chlorophenyl)-2-(4-fluoro-1-piperidinyl)-6,7,8,9-tetrahydro-5H-pyrimido[4,5-d]azepine]
[2]
  Ki: 19 nM
[3]
  Ki: 6 nM
[4]
  Ki: 5 nM
[1]
  Ki: 29 nM

## Clc1ccc(-c2nc(N3CCOCC3)nc3c2CNCCC3)cc1 [Example 57, 4-(4-Chloro-phenyl)-2-morpholin-4-yl-6,7,8,9-tetrahydro-5H-1,3,6-triaza-benzocycloheptene]
[2]
  Ki: 500 nM
[3]
  Ki: > 10000 nM
[4]
  Ki: > 10000 nM
[1]
  Ki: 2290 nM

## C[C@H]1COCCN1c1nc2c(c(-c3cc4ccccc4o3)n1)CCNCC2 [Example 98, 4-(2-benzofuranyl)-6,7,8,9-tetrahydro-2-[(3S)-3-methyl-4-morpholinyl]-5H-pyrimido[4,5-d]azepine]
[2]
  Ki: 99 nM
[3]
  Ki: 25 nM
[4]
  Ki: 140 nM
[1]
  Ki: 13 nM

## Cc1ccc(-c2nc(N3[C@H](C)CCC[C@@H]3C)nc3c2CCNCC3)cc1F [Example 85, 2-[(2R,6S)-2,6-dimethyl-1-piperidinyl]-4-(3-fluoro-4-methylphenyl)-6,7,8,9-tetrahydro-5H-pyrimido[4,5-d]azepine]
[2]
  Ki: 45 nM
[3]
  Ki: 2 nM
[4]
  Ki: 15 nM
[1]
  Ki: 31 nM

## C[C@@H]1CCC[C@H](C)N1c1nc2c(c(-c3ccc(Cl)cc3)n1)CCNCC2 [Example 70, 4-(4-chlorophenyl)-2-[(2R,6S)-2,6-dimethyl-1-piperidinyl]-6,7,8,9-tetrahydro-5H-pyrimido[4,5-d]azepine]
[2]
  Ki: 54 nM
[3]
  Ki: 2 nM
[4]
  Ki: 12 nM
[1]
  Ki: 19 nM

## C[C@@H]1CCC[C@H](C)N1c1nc2c(c(-c3cnc4ccccc4c3)n1)CCNCC2 [Example 88, 2-[(2R,6S)-2,6-dimethyl-1-piperidinyl]-6,7,8,9-tetrahydro-4-(3-quinolinyl)-5H-pyrimido[4,5-d]azepine]
[2]
  Ki: 230 nM
[3]
  Ki: 64 nM
[4]
  Ki: 600 nM
[1]
  Ki: 12 nM

## Clc1ccc(-c2nc(N3CCCCC3)nc3c2CCNCC3)cc1 [Example 74, 4-(4-chlorophenyl)-6,7,8,9-tetrahydro-2-(1-piperidinyl)-5H-pyrimido[4,5-d]azepine]
[2]
  Ki: 4 nM
[3]
  Ki: 3 nM
[4]
  Ki: 1 nM
[1]
  Ki: 46 nM

## Cc1ccc(-c2nc(N3CCCC3C)nc3c2CCNCC3)cc1Cl (centres unmarked) [Example 77, 4-(3-chloro-4-methylphenyl)-6,7,8,9-tetrahydro-2-(2-methyl-1-pyrrolidinyl)-5H-pyrimido[4,5-d]azepine]
[2]
  Ki: 77 nM
[3]
  Ki: 9 nM
[4]
  Ki: 33 nM
[1]
  Ki: 51 nM

## FC1CCN(c2nc3c(c(-c4ccc(Cl)c(Cl)c4)n2)CCNCC3)CC1 [Example 67, 4-(3,4-dichlorophenyl)-2-(4-fluoro-1-piperidinyl)-6,7,8,9-tetrahydro-5H-pyrimido[4,5-d]azepine]
[1]
  Ki: 96 nM

## C[C@@H]1CCC[C@H](C)N1c1nc2c(c(-c3ccc(OC(F)(F)F)cc3)n1)CCNCC2 [Example 90, 2-[(2R,6S)-2,6-dimethyl-1-piperidinyl]-6,7,8,9-tetrahydro-4-[4-(trifluoromethoxy)phenyl]-5H-pyrimido[4,5-d]azepine]
[1]
  Ki: 88 nM

## C[C@@H]1CCC[C@H](C)N1c1nc2c(c(-c3ccc(F)c(F)c3)n1)CCNCC2 [Example 83, 4-(3,4-difluorophenyl)-2-[(2R,6S)-2,6-dimethyl-1-piperidinyl]-6,7,8,9-tetrahydro-5H-pyrimido[4,5-d]azepine]
[2]
  Ki: 131 nM
[3]
  Ki: 12 nM
[4]
  Ki: 39 nM
[1]
  Ki: 84 nM

## C[C@@H]1COCCN1c1nc2c(c(-c3cnc4ccccc4c3)n1)CCNCC2 [Example 99, 6,7,8,9-tetrahydro-2-[(3R)-3-methyl-4-morpholinyl]-4-(3-quinolinyl)-5H-pyrimido[4,5-d]azepine]
[2]
  Ki: 1440 nM
[3]
  Ki: 280 nM
[4]
  Ki: 490 nM
[1]
  Ki: 30 nM

## FC1(F)CCN(c2nc3c(c(-c4cnc5ccccc5c4)n2)CCNCC3)CC1 [Example 103, 2-(4,4-difluoro-1-piperidinyl)-6,7,8,9-tetrahydro-4-(3-quinolinyl)-5H-pyrimido[4,5-d]azepine]
[1]
  Ki: 42 nM

## C[C@@H]1CCC[C@H](C)N1c1nc2c(c(-c3ccc4c(c3)OCCO4)n1)CCNCC2 [Example 87, 4-(2,3-dihydro-1,4-benzodioxin-6-yl)-2-[(2R,6S)-2,6-dimethyl-1-piperidinyl]-6,7,8,9-tetrahydro-5H-pyrimido[4,5-d]azepine]
[1]
  Ki: 82 nM

## Cc1ccc(-c2nc(N3CCS(=O)(=O)CC3)nc3c2CCNCC3)cc1Cl [Example 92, 4-(3-Chloro-4-methyl-phenyl)-2-(1,1-dioxo-1λ^6-thiomorpholin-4-yl)-6,7,8,9-tetrahydro-5H-pyrimido[4,5-d]azepine]
[2]
  Ki: 1140 nM
[3]
  Ki: 950 nM
[4]
  Ki: 2040 nM
[1]
  Ki: 85 nM

## Cc1ccc(-c2nc(N3CCS(=O)(=O)CC3)nc3c2CCN(C)CC3)cc1 [Example 65, 2-(1,1-Dioxo-1λ^6-thiomorpholin-4-yl)-7-methyl-4-p-tolyl-6,7,8,9-tetrahydro-5H-pyrimido[4,5-d]azepine]
[3]
  Ki: 280 nM
[4]
  Ki: 960 nM
[1]
  Ki: 41 nM

## CC1CCCN1c1nc2c(c(-c3ccc(Cl)cc3)n1)CNCCC2 (centres unmarked) [Example 53, 4-(4-Chloro-phenyl)-2-(2-methyl-pyrrolidin-1-yl)-6,7,8,9-tetrahydro-5H-1,3,6-triaza-benzocycloheptene]
[2]
  Ki: 2000 nM
[3]
  Ki: 1200 nM
[4]
  Ki: > 10000 nM

## Cc1ccc(-c2nc(N3CCCCC3)nc3c2CCNCC3)cc1Cl [Example 75, 4-(3-chloro-4-methylphenyl)-6,7,8,9-tetrahydro-2-(1-piperidinyl)-5H-pyrimido[4,5-d]azepine]
[1]
  Ki: 85.9 nM

## Clc1ccc(-c2nc(NCc3ccccc3)nc3c2CNCCC3)cc1 [Example 55, Benzyl-[4-(4-chloro-phenyl)-6,7,8,9-tetrahydro-5H-1,3,6-triaza-benzocyclohepten-2-yl]-amine]
[2]
  Ki: 50 nM
[3]
  Ki: > 10000 nM
[4]
  Ki: 1100 nM

## c1ccc2ncc(-c3nc(N4CCOCC4)nc4c3CCNCC4)cc2c1 [Example 102, 2-Morpholin-4-yl-4-quinolin-3-yl-6,7,8,9-tetrahydro-5H-pyrimido[4,5-d]azepine]
[3]
  Ki: 300 nM
[4]
  Ki: 360 nM
[1]
  Ki: 70 nM

## Cc1ccc(-c2nc(N3CCCCC3)nc3c2CCNCC3)cc1 [Example 78, 6,7,8,9-tetrahydro-4-(4-methylphenyl)-2-(1-piperidinyl)-5H-pyrimido[4,5-d]azepine]
[2]
  Ki: 2 nM
[4]
  Ki: 1 nM
[1]
  Ki: 14 nM

## CC(C)c1ccc(-c2nc(N3CCS(=O)(=O)CC3)nc3c2CCNCC3)cc1 [Example 101, 2-(1,1-Dioxo-1λ^6-thiomorpholin-4-yl)-4-(4-isopropyl-phenyl)-6,7,8,9-tetrahydro-5H-pyrimido[4,5-d]azepine]
[3]
  Ki: 650 nM
[4]
  Ki: 3780 nM
[1]
  Ki: 92 nM
